Molecules are shown by their SMILES.

This assay addresses T1, h-GABAA α1β2γ1 (Homo sapiens, UniProt P14867+Q8N1C3).
T1 construct: expressed in transfected cells; host or cells: HEK293F cells (ThermoFisher R79007), membranes
T1 sequence (P14867 28-456): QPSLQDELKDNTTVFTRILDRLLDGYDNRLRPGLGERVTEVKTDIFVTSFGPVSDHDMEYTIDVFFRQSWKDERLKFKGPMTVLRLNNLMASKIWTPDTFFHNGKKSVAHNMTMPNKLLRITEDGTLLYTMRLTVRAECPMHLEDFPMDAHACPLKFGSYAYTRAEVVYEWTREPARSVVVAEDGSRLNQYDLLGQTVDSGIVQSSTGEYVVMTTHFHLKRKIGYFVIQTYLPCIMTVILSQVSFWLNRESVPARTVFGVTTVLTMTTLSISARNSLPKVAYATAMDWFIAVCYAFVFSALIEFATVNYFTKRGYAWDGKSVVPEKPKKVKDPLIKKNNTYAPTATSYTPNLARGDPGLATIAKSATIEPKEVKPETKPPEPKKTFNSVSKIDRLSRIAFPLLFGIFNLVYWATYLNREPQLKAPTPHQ
T1 sequence (P47870 25-512 partner limits assumed): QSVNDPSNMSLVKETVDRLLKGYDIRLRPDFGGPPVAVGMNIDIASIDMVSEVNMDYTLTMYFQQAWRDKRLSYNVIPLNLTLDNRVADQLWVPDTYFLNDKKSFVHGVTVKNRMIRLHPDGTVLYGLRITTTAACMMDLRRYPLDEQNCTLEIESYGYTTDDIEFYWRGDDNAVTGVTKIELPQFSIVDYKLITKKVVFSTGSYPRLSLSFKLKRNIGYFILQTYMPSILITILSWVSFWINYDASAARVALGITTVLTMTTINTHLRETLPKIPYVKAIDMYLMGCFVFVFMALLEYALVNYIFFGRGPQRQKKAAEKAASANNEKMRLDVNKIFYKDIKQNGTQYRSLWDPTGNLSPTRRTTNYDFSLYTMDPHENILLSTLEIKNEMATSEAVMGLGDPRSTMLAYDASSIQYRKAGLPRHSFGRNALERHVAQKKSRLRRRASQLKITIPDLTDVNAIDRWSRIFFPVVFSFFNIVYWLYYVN
T1 sequence (Q8N1C3 36-465): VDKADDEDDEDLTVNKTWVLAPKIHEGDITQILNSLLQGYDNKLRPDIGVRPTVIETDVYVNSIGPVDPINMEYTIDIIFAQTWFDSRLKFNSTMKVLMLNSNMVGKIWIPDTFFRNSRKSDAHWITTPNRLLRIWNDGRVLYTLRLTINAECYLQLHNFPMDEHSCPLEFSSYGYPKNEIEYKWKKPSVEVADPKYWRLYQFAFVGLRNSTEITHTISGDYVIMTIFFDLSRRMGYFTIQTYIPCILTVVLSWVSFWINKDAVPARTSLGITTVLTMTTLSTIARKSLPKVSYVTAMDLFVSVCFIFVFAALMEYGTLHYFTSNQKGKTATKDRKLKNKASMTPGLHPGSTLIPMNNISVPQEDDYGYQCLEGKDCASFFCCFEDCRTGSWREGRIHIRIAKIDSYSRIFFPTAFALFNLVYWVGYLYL
The experiment in a line: Radioligand binding assay, [3H]RO7239181 competition, HEK293F membranes. As for the experimental part:
The affinity of compounds at GABAA γ1 subunit-containing receptors was measured by competition for [^3H]RO7239181 (67.3 Ci/mmol; Roche) binding to membranes from HEK293F cells (ThermoFisher R79007) expressing human (transiently transfected) receptors of composition […], α2β2γ1, α1β2γ1.
Harvested pellets from HEK293F cells expressing the different GABAA receptor subtypes were resuspended in Mannitol Buffer pH 7.2-7.4 (Mannitol 0.29M, Triethylamine 10 mM, Acetic acid 10 mM, EDTA 1 mM plus protease inhibitors (20 tablets Complete, Roche Diagnostics Cat. No. 05 056 489 001 per liter)), washed two times and then resuspended at 1:10 to 1:15 dilution in the same buffer. Cell disruption was performed by stirring the suspension in a Parr vessel #4637 at 435 psi for 15 minutes, and then the suspensions were centrifuged at 1000×g for 15 minutes at 4° C. (Beckman Avanti J-HC; rotor JS-4.2). The supernatant (S1) was transferred in a 21 Schott flask and the pellet (P1) was resuspended with Mannitol Buffer up to 175 ml. The resuspended pellet was transferred into a 250 ml Corning centrifugal beaker and centrifuged at 1500×g for 10 minutes at 4° C. (Beckman Avanti J-HC; rotor JS-4.2). The supernatant (S1) was then transferred in the 21 Schott flask and the pellet was discarded. The supernatants (S1) were centrifuged in 500 ml Beckman polypropylene centrifugal beaker at 15′000×g for 30 minutes at 4° C. (Beckman Avanti J-20 XP; rotor JLA-10.500). The pellet (P2) was resuspended with Mannitol Buffer 1:1 and frozen at −80° C. The supernatant (S2) was centrifuged in 100 ml Beckman polypropylene centrifugal tubes at 48000×g for 50 minutes at 4° C. (Beckman Avanti J-20 XP; rotor JA-18). The supernatant (S3) was discarded and the pellet (P3) was resuspended with 1:1 Mannitol Buffer. The P2 and P3 protein concentration was determined with the BIORAD Standard assay method with bovine serum albumin as standard and measured on the NANO-Drop 1000. The membrane suspension was aliquots (500 μl per tube) and stored at −80° C. until required. Membrane homogenates were resuspended and polytronised (Polytron PT1200E Kinematica AG) in Potassium Phosphate 10 mM, KCl 100 mM binding buffer at pH 7.4 to a final assay concentration determined with a previous experiment.
Assays were incubated to equilibrium for 1 hour at 4° C. and then, membranes were filtered onto unifilter (96-well white microplate with bonded GF/C filters preincubated 20-50 minutes in 0.3% Polyethylenimine) with a Filtermate 196 harvester (Packard BioScience) and washed 4 times with cold Potassium Phosphate 10 mM pH 7.4, KCl 100 mM binding buffer. After drying, filter-retained radioactivity was detected by liquid scintillation counting. Ki values were calculated using Excel-Fit (Microsoft) and are the means of two determinations.
Take `Cc1nnc2n1-c1ccc(Cl)c(Cl)c1C(c1ncccc1F)=NC2` [Example 71, 7,8-dichloro-6-(3-fluoro-2-pyridyl)-1-methyl-4H-[1,2,4]triazolo[4,3-a][1,4]benzodiazepine]: the Ki came out at 178 nM. In other words, the sub-micromolar range. `Fc1cccc(F)c1C1=NCc2nnc(-c3ccncn3)n2-c2ccc(Cl)c(Cl)c21` [Example 12, 7,8-dichloro-6-(2,6-difluorophenyl)-1-pyrimidin-4-yl-4H-[1,2,4]triazolo[4,3-a][1,4]benzodiazepine] registered a Ki of 17.6 nM. Then `Fc1cccnc1C1=NCc2nnc(-c3cccnn3)n2-c2ccc(Cl)c(Cl)c21` [Example 54, 7,8-dichloro-6-(3-fluoro-2-pyridyl)-1-pyridazin-3-yl-4H-[1,2,4]triazolo[4,3-a][1,4]benzodiazepine], with 121 nM; and `Cc1nnc2n1-c1ccc(I)c(Cl)c1C(c1c(F)cccc1F)=NC2` [Example 41, 7-chloro-6-(2,6-difluorophenyl)-8-iodo-1-methyl-4H-[1,2,4]triazolo[4,3-a][1,4]benzodiazepine], with 4.8 nM. With `Fc1cccc(F)c1C1=NCc2nnc(-c3cccnn3)n2-c2ccc(Cl)c(Cl)c21` [Example 14, 7,8-dichloro-6-(2,6-difluorophenyl)-1-pyridazin-3-yl-4H-[1,2,4]triazolo[4,3-a][1,4]benzodiazepine], affinity was put at a Ki of 5.2 nM. In the case of `Fc1ccccc1C1=NCc2nnc(-c3cccnn3)n2-c2ccc(C(F)(F)F)c(Cl)c21` [Example 27, 7-chloro-6-(2-fluorophenyl)-1-pyridazin-3-yl-8-(trifluoromethyl)-4H-[1,2,4]triazolo[4,3-a][1,4]benzodiazepine], the Ki was 288 nM. Then `Cc1ccc2c(c1Cl)C(c1c(F)cccc1F)=NCc1nnc(C)n1-2` [Example 20, 7-chloro-6-(2,6-difluorophenyl)-1,8-dimethyl-4H-[1,2,4]triazolo[4,3-a][1,4]benzodiazepine], with 37.1 nM; and `Fc1cccc(F)c1C1=NCc2nnc(C3CCOCC3)n2-c2ccc(Cl)c(Cl)c21` [Example 11, 7,8-dichloro-6-(2,6-difluorophenyl)-1-tetrahydropyran-4-yl-4H-[1,2,4]triazolo[4,3-a][1,4]benzodiazepine], with 60.3 nM; and `Cn1cc(-c2nnc3n2-c2ccc(Cl)c(Cl)c2C(c2c(F)cccc2F)=NC3)cn1` [Example 28, 7,8-dichloro-6-(2,6-difluorophenyl)-1-(1-methylpyrazol-4-yl)-4H-[1,2,4]triazolo[4,3-a][1,4]benzodiazepine], with 12.6 nM.

For `Fc1cccnc1C1=NCc2nnc(-c3ccncn3)n2-c2ccc(Cl)c(Cl)c21` [Example 55, 7,8-dichloro-6-(3-fluoro-2-pyridyl)-1-pyrimidin-4-yl-4H-[1,2,4]triazolo[4,3-a][1,4]benzodiazepine], the Ki was 133 nM. Compared with the last compound, the Ki is about 11-fold higher. Then `Cc1ccc2c(c1Cl)C(c1c(F)cccc1F)=NCc1nnc(-c3ccncn3)n1-2` [Example 49, 7-chloro-6-(2,6-difluorophenyl)-8-methyl-1-pyrimidin-4-yl-4H-[1,2,4]triazolo[4,3-a][1,4]benzodiazepine], with 40.5 nM. In turn, `Cc1nnc2n1-c1ccc(C(F)F)c(Cl)c1C(c1c(F)cccc1F)=NC2` [Example 25, 7-chloro-8-(difluoromethyl)-6-(2,6-difluorophenyl)-1-methyl-4H-[1,2,4]triazolo[4,3-a][1,4]benzodiazepine] yielded a Ki of 68.6 nM. `Cc1nnc2n1-c1ccc(C(C)(F)F)c(Cl)c1C(c1c(F)cccc1F)=NC2` [Example 22, 7-chloro-8-(1,1-difluoroethyl)-6-(2,6-difluorophenyl)-1-methyl-4H-[1,2,4]triazolo[4,3-a][1,4]benzodiazepine] showed a Ki of 68.7 nM.

The compound `Cc1ncc2n1-c1ccc(Cl)cc1C(c1ccccc1F)=NC2` [Midazolam, reference compound] displayed an inhibition constant (Ki) of 1150 nM. Then `Fc1cccnc1C1=NCc2nncn2-c2ccc(Cl)c(Cl)c21` [Example 60, 7,8-dichloro-6-(3-fluoro-2-pyridyl)-4H-[1,2,4]triazolo[4,3-a][1,4]benzodiazepine], with 161 nM. In turn, `O=c1[nH]nc2n1-c1ccc(Br)c(Cl)c1C(c1c(F)cccc1F)=NC2` [Example 13, 8-bromo-7-chloro-6-(2,6-difluorophenyl)-2,4-dihydro-[1,2,4]triazolo[4,3-a][1,4]benzodiazepin-1-one] had a Ki of 6.2 nM. On to `Fc1ccccc1C1=NCc2nncn2-c2ccc(Br)c(Cl)c21` [Example 8, 8-bromo-7-chloro-6-(2-fluorophenyl)-4H-[1,2,4]triazolo[4,3-a][1,4]benzodiazepine], for which the affinity, expressed as Ki, was 43.8 nM. Then `COc1ccc2c(c1Cl)C(c1c(F)cccc1F)=NCc1nnc(C3CC3)n1-2` [Example 79, 7-chloro-1-cyclopropyl-6-(2,6-difluorophenyl)-8-methoxy-4H-[1,2,4]triazolo[4,3-a][1,4]benzodiazepine], with 80.1 nM; and `Fc1cccc(F)c1C1=NCc2nncn2-c2ccc(C(F)F)c(Cl)c21` [Example 23, 7-chloro-8-(difluoromethyl)-6-(2,6-difluorophenyl)-4H-[1,2,4]triazolo[4,3-a][1,4]benzodiazepine], with 63.9 nM; and `COc1ccc2c(c1Cl)C(c1c(F)cccc1F)=NCc1nnc(-c3ccncn3)n1-2` [Example 61, 7-chloro-6-(2,6-difluorophenyl)-8-methoxy-1-pyrimidin-4-yl-4H-[1,2,4]triazolo[4,3-a][1,4]benzodiazepine], with 119 nM. For `COCCc1nnc2n1-c1ccc(Cl)c(Cl)c1C(c1c(F)cccc1F)=NC2` [Example 19, 7,8-dichloro-6-(2,6-difluorophenyl)-1-(2-methoxyethyl)-4H-[1,2,4]triazolo[4,3-a][1,4]benzodiazepine] the value was 43.9 nM; for `Cc1nnc2n1-c1ccc(C(F)(F)F)c(Cl)c1C(c1c(F)cccc1F)=NC2` [Example 40, 7-chloro-6-(2,6-difluorophenyl)-1-methyl-8-(trifluoromethyl)-4H-[1,2,4]triazolo[4,3-a][1,4]benzodiazepine], 20.8 nM; for `Cc1nnc2n1-c1ccc(Cl)c(Cl)c1C(c1ccccc1F)=NC2` [Example 4, 7,8-dichloro-6-(2-fluorophenyl)-1-methyl-4H-[1,2,4]triazolo[4,3-a][1,4]benzodiazepine], 103 nM.

Source of the values: patent US20230141603A1, “BENZODIAZEPINE DERIVATIVES AS GABA A GAMMA1 PAM” (Hoffmann-La Roche Inc., priority 2021, published 2023).
